Laboratory results reported in patent US10130611B2, “Use of benzo-heterocycle derivatives for preventing and treating cancer or for inhibiting cancer metastasis” (MEDICINAL BIOCONVERGENCE RESEARCH CENTER, priority 2009, dated 2018).

How the values were obtained:
[1] = target: T1, intracellular interaction between KRS and 67LR (Homo sapiens, UniProt Q15046); experiment: Co-immunoprecipitation of KRS with 67LR in cells treated with KL1; assay type: cell-based
T1 construct: endogenous in cells
Method: (§1) As a control, an OD level of cells treated with DMSO was measured. FIG. 32 is a photograph showing cell growth in wells containing yeast cells having indicated interaction pairs in the presence or absence of CAND-KL1. In FIG. 33, in 293 cells, through co-immunoprecipitation, the KL1-dose-dependent effect on the interaction between KRS and 67LR was tested. The cells were treated with KL1 for 3 hours, 67LR was immunoprecipitated, and co-precipitation of KRS was determined by western blotting. In FIG. 34, in the presence of KL1 in indicated levels, a laminin receptor labeled with radioisotope was mixed with GST-KRS (1 μg). GST-KRS was precipitated with glutathione-Sepharose beads, and co-precipitated laminin receptor was detected with autoradiography. In FIG. 35, in A549 cells, the effect of KL1 on the intracellular level of 67LR and 37LRP was tested with western blotting. […] GST-KRS was immobilized on a CM5 Sensor Chip, and the binding was measured by a resonance unit (RU) at indicated concentrations (indicated by different colors). […]
(§2) From among the compounds, the inventors also examined whether the compound represented by Formula 15 (indicated by CAND-KL1, and KL1) can inhibit the intracellular interaction between KRS and 67LR. […] Then, 67LR was immunoprecipitated with its antibody, and co-immunoprecipitation of KRS was determined. […]

[2] = target: T2, interaction between laminin receptor and GST-KRS (Homo sapiens, UniProt Q15046); experiment: In vitro pull-down of radiolabelled laminin receptor with GST-KRS; assay type: binding; details: KL1 in different amounts; GST-KRS 1 μg; autoradiography
T2 construct: made in house; host or cells: GST-KRS: E. coli Rosetta (DE3); 37LRP: TNT Quick coupled Transcription/Translation system (Promega) from pcDNA3-37LRP
T2 sequence (Q15046 whole entry): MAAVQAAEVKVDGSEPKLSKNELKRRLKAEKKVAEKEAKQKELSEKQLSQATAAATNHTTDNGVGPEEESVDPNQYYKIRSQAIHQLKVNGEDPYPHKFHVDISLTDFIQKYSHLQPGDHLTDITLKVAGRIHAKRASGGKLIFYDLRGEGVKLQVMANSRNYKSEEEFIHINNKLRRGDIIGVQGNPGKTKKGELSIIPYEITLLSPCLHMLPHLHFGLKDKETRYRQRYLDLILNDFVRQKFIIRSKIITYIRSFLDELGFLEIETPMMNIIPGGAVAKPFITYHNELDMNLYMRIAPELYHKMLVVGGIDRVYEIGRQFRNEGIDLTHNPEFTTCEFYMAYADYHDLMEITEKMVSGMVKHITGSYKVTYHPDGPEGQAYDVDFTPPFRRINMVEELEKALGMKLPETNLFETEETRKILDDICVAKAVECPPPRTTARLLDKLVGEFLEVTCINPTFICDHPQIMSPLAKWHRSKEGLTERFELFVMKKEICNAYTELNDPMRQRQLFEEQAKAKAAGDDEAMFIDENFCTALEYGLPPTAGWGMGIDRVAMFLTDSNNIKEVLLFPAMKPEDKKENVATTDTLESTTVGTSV
Method: as §1, §2

MMP2 = MMP2 activity (zymography); assay type: cell-based, human; details: KL1 in different amounts
Method: On MMP2 activity (FIG. 37) and cell migration (FIGS. 38 and 39), KL1-dose-dependent effect was measured. For the test on the cell migration, the cells were treated with KL1 for 8 hours. In FIG. 40, in order to see the effect of KL1 on protein synthesis of cells, A549 cells were treated with KL1 at indicated concentrations, and starved in methionine-free medium. Then, [^35S] methionine was added thereto for 2 hours. Then, the cells were incubated in complete medium for 4 hours, and the level of added methionine was measured by a scintillation counter. In FIG. 41, KL1-dose-dependent cytotoxicity was measured by using A549 cells. In FIG. 42, the effect of KL1 on cancer metastasis was measured according to the method as described above. In each group, 6 mice were included, and KL1 was abdominally injected for 3 weeks, in a dose of 30 mg/kg once a day. Then, the mice were sacrificed. The metastasized tumor nodules over 1 mm in diameter were counted, and their average was calculated (left). The photograph of a representative lung is shown at the right side. In FIG. 43, on a KL1 treated group and a KL1 non-treated, primary tumors were observed.
A549 cells were transfected with the plasmids encoding the indicated siRNAs and recombinant KRS (or DRS) were incubated for 48 and 24 hours, respectively, and were inoculated to RPMI medium containing 10% FBS (1×10^5 cells/well). […]

T1 sequence (Q15046 2-597 limits assumed): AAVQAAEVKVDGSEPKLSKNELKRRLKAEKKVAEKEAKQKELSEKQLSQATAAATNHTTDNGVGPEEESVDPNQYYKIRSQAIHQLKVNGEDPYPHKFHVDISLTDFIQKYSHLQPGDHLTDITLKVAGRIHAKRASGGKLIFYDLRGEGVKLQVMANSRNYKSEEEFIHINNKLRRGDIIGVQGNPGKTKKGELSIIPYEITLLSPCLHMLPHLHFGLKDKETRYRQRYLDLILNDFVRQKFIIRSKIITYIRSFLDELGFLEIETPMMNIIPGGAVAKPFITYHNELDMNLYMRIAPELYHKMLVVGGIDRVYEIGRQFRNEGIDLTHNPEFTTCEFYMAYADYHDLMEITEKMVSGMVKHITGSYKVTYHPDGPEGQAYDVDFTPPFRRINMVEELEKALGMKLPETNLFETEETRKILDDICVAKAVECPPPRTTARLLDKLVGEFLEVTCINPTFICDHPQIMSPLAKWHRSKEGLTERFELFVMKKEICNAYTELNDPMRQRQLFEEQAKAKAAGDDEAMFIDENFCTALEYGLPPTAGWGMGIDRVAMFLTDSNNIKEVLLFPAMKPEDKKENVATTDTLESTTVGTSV

intracellular levels of KRS and 67LR ([1]; same co-immunoprecipitation experiment (FIG. 33)): not changed
SMILES: CCC(C(=O)O)n1/c(=N/C(=O)c2ccc(C)cc2)sc2ccccc21 (stereo not shown) [Compound of formula 15, 2-[2-(4-Methyl-benzoylimino)-benzothiazol-3-yl]-butyric acid]
level of KRS co-precipitated with 67LR ([1]; cells treated with KL1 at different concentrations, 3 hours, 67LR immunoprecipitated): decreased according the increase of KL1 level
level of laminin receptor pulled down with GST-KRS [2]: decreased according to an increase of the added KL1 compound
MMP2 activity (MMP2): inhibited
